This is an account of results in patent US6087355A, “Cephalosporin antibiotics” (Microcide Pharmaceuticals, Inc., priority 1996, dated 2000).

What all share (assay): In vitro MIC, agar dilution
Assay type in all cases: cell-based
A general note: In agar dilution the substance is mixed into plates at graded concentrations.

In assay [1] the test system is S. aureus Col(Meth^R)(lac^-). The conditions noted are these: Staphylococcus aureus, read-out: minimum inhibitory concentration (MIC). As to the method:
(§1) The compounds of the invention were evaluated against several β-lactamresistant (for example methicillin-resistant, vancomycin resistant, and/or ampicillin-resistant) bacteria strains by determining the minimum inhibitory concentration (MIC, μg/ml) of each compound with respect to each strain. The MIC, the lowest concentration of antibiotic which inhibits growth of the test organism, was determined by the agar dilution method.
(§2) To determine the MIC for bacterial isolates, the test compound was incorporated in a series of two-fold dilutions into liquified Mueller-Hinton agar. Upon solidification, a number of different bacterial strains were spot inoculated with a replicating device onto the agar surface.
(§3) Aliquots of antimicrobial agents were prepared in phosphate buffered saline (PBS) at pH 7.2. Tween 20 or DMSO was used as a solubilizing vehicle as needed. Standard methods of vortexing, sonicating and gentle heat were used to facilitate solubilizing the test agent. […] A 1.28 mg/mL stock solution was used with a subsequent highest working concentration of 128 μg/mL. Serial two-fold dilutions were done through ≤0.25 μg/mL. Each drug level was tested in duplicate. Two-fold drug dilutions were done in sterile 50 mL tubes with a final drug volume of 5 mL. Upon the addition of 45 mL of molten agar, a 10-fold dilution resulted. Two, 25 mL. plates were then poured into 15×150 mm square Petri plates with grids and allowed to harden.
(§4) A control plate with a reference drug, either cefotaxime, vancomycin or imipenem, was used as the positive growth control. Stock concentrations of reference antibiotics were prepared and frozen at -80° C. […] All test plates were used within 24 hours of preparation.
(§5) Satisfactory results were obtained where the inoculum contained about 10^4 colony forming units (cfu)±0.5 logs. Starting with pure cultures of the test isolates on agar plates, a few isolated colonies were transferred to a tube of nutrient broth and allowed to grow 4-6 hours at 35-36° C. to reach log-phase growth. Dropwise addition of the broth culture to PBS was done to match a 0.5 McFarland turbidity standard equal to 10^8 cfu/mL. This was further diluted ten-fold in PBS to reach a working inoculum concentration of 10^7 cfu/mL. When 1 μL of the working inoculum was applied to the agar surface a concentration of about 10^4 cfu per spot was obtained.
(§6) Disposable sterile 1 μL loops were used to inoculate test plates, with each isolate in a designated grid on the agar plate. An alternate method of inoculation involved the use of a replica plater, a device with 48 steel pins allowing the simultaneous inoculation of multiple isolates. After the spots had dried, the plates were incubated at 35-36° C. for 16-20 hours. Endpoints were assessed as the minimum inhibitory concentration (MIC) of antimicrobial agent.
The S. aureus Col strain is a high-level PBP2a producer, whereas S. aureus Col 8A, its isogenic partner, lacks PBP2a.

In assay [2] the test system is S. haemolyticus 05(Meth^R). The conditions noted are these: Staphylococcus haemolyticus, read-out: minimum inhibitory concentration (MIC). As to the method: as §1, §2, §3, §4, §5, §6
Assay [3] has as its system S. aureus PC1(Meth^S)(lac^+). The conditions noted are these: Staphylococcus aureus, read-out: minimum inhibitory concentration (MIC). As to the method:
as §1, §2, §3, §4, §5, §6

The subject of assay [4] is S. aureus ATCC 13709(Meth^S). The conditions noted are these: Staphylococcus aureus, ATCC13709, S. aureus ATCC 13709(Meth^S); read-out: minimum inhibitory concentration (MIC). Here is the method: as §1, §2, §3, §4, §5, §6
The test system of assay [5] is E. faecium VanA(Van^R). Particulars: Enterococcus faecium, read-out: minimum inhibitory concentration (MIC). As to the method: as §1, §2, §3, §4, §5, §6
For assay [6], the system named is S. aureus ATCC 33593(Meth^R). Particulars: Staphylococcus aureus, ATCC33593, read-out: minimum inhibitory concentration (MIC). As to the method:
as §1, §2, §3, §4, §5, §6

Assay [7] deals with E. faecalis ATCC 29212. Particulars: Enterococcus faecalis, ATCC29212, read-out: minimum inhibitory concentration (MIC). Here is the method:
as §1, §2, §3, §4, §5, §6

The subject of assay [8] is E. faecalis VanB(Van^R). Particulars: Enterococcus faecalis, read-out: minimum inhibitory concentration (MIC). Here is the method: as §1, §2, §3, §4, §5, §6
For assay [9], the system named is E. faecium A491(Amp^R). The conditions noted are these: Enterococcus faecium, read-out: minimum inhibitory concentration (MIC). Here is the method:
as §1, §2, §3, §4, §5, §6

In assay [10] the test system is S. aureus Spain #356(Meth^R). The conditions noted are these: Staphylococcus aureus, read-out: minimum inhibitory concentration (MIC). Here is the method:
as §1, §2, §3, §4, §5, §6

Assay [11] relates to S. aureus ATCC 29213. Particulars: Staphylococcus aureus, ATCC29213, read-out: minimum inhibitory concentration (MIC). Here is the method: as §1, §2, §3, §4, §5, §6
In assay [12] the test system is P. aeruginosa ATCC 27853. Particulars: Pseudomonas aeruginosa, ATCC27853, read-out: minimum inhibitory concentration (MIC). As to the method:
as §1, §2, §3, §4, §5, §6

Assay [13] has as its system E. coli ATCC 25992. The conditions noted are these: Escherichia coli, ATCC25992, read-out: minimum inhibitory concentration (MIC). As to the method:
as §1, §2, §3, §4, §5, §6

The subject of assay [14] is E. faecium ATCC 35667. Particulars: Enterococcus faecium, ATCC35667, read-out: minimum inhibitory concentration (MIC). As to the method:
as §1, §2, §3, §4, §5, §6

Assay [15] concerns S. aureus 76(Meth^R)(lac^+). Particulars: Staphylococcus aureus, read-out: minimum inhibitory concentration (MIC). As to the method: as §1, §2, §3, §4, §5, §6

Counter-ions that a name gives are not always drawn.

On to `CC(N)CSCc1cnccc1SC1=C(C(=O)O)N2C(=O)[C@@H](NC(=O)/C(=N\O)c3nc(N)sc3Cl)[C@H]2SC1` (stereo partly drawn) [Cmpd 36, (7R)-7-[(Z)-2-(2-amino-5-chlorothiazol-4-yl)-2-(hydroxyimino)acetamido]-3-(3-(2-aminoprop-1-ylthiomethyl)pyrid-4-ylthio)-3-cephem-4-carboxylate, trifluoroacetic acid salt], for which the MIC in assay [1] was found to be 1 µg/mL; in [2], 2 µg/mL; in [3], 0.25 µg/mL; in assay [4], 0.25 µg/mL; in assay [5], 1 µg/mL; in [6], 1 µg/mL. The MIC in [7] was 0.25 µg/mL; in assay [8], 0.13 µg/mL; in assay [9] it was 8 µg/mL; in assay [10], 1 µg/mL; in assay [11], 0.5 µg/mL; in assay [12] it was above 32 µg/mL. Besides, the MIC in assay [13] was determined as 16 µg/mL; in assay [14], 0.5 µg/mL; in assay [15], 2 µg/mL.
For `NCCCSc1cnccc1SC1=C(C(=O)O)N2C(=O)[C@@H](NC(=O)/C(=N\O)c3nc(N)sc3Cl)[C@H]2SC1` [Cmpd 51, (7R)-7-[(Z)-2-(2-amino-5-chlorothiazol-4-yl)-2-(hydroxyimino)acetamido]-3-(3-(3-aminopropylthio)pyrid-4-ylthio)-3-cephem-4-carboxylate, trifluoroacetic acid salt], the MIC in assay [1] turned out to be 2 µg/mL; in assay [2] it was 2 µg/mL; in [3] it was 0.5 µg/mL; in [4], 0.5 µg/mL; in assay [5] it was 1 µg/mL; in assay [6] it was 2 µg/mL. In addition, the MIC is 0.13 µg/mL in [7]; 0.25 µg/mL in assay [8]; 8 µg/mL in [9]; 2 µg/mL in assay [10]; 0.25 µg/mL in assay [11]; above 32 µg/mL in assay [12]. For the same molecule, the MIC in assay [13] amounted to 8 µg/mL; in assay [14], 0.13 µg/mL; in assay [15] it was 4 µg/mL.
For `NCCSCc1cnccc1SC1=C(C(=O)O)N2C(=O)[C@@H](NC(=O)/C(=N\OCCF)c3csc(N)n3)[C@H]2SC1` [Cmpd 23, (7R)-7-[(Z)-2-(aminothiazol-4-yl)-2-(2-fluoroethoxyimino)acetamido]-3-(3-aminoethylthiomethylpyrid-4-ylthio)-3-cephem-4-carboxylate, trifluoroacetic acid salt], the MIC in assay [1] came to 2 µg/mL; in assay [2] it was 4 µg/mL; in assay [3], 0.5 µg/mL; in assay [4], 0.5 µg/mL; in assay [5], 4 µg/mL; in assay [6] it was 4 µg/mL. The MIC is 0.5 µg/mL in assay [7]; 1 µg/mL in [8]; above 32 µg/mL in assay [9]; 4 µg/mL in [10]; 1 µg/mL in assay [11]; above 32 µg/mL in assay [12]. The figures for the MIC in assay [13], in [14] and in assay [15] were 2 µg/mL, 2 µg/mL and 4 µg/mL, respectively.
With `NCCSc1cnccc1SC1=C(C(=O)O)N2C(=O)[C@@H](NC(=O)/C(=N\O)c3csc(N)n3)[C@H]2SC1` [Cmpd 20, (7R)-7-[(Z)-2-(aminothiazol-4-yl)-2-(hydroxyimino)acetamido]-3-(3-aminoethylthiopyrid-4-ylthio)-3-cephem-4-carboxylate, trifluoroacetic acid salt], the MIC in assay [1] was found to be 2 µg/mL; in [2], 4 µg/mL; in assay [3], 0.5 µg/mL; in assay [4], 0.5 µg/mL; in assay [5], 2 µg/mL; in [6], 2 µg/mL. For the same molecule, the MIC in assay [7] was 1 µg/mL; in assay [8], 0.5 µg/mL; in assay [9] it was above 32 µg/mL; in [10], 4 µg/mL; in [11], 0.5 µg/mL; in assay [12], above 32 µg/mL. In addition, the MIC in assay [13] worked out at 4 µg/mL; in [14], 1 µg/mL; in assay [15], 4 µg/mL.
Consider `CC(C)(CN)SCc1cnccc1SC1=C(C(=O)O)N2C(=O)[C@@H](NC(=O)/C(=N\O)c3csc(N)n3)[C@H]2SC1` [Cmpd 19, (7R)-7-[(Z)-2-(aminothiazol-4-yl)-2-(hydroxyimino)acetamido]-3-[3-(2-amino-1,1-dimethylethylthiomethyl)pyrid-4-ylthio]-3-cephem-4-carboxylate, trifluoroacetic acid salt], for which the MIC stood at 8 µg/mL in assay [1]; 16 µg/mL in assay [2]; 0.5 µg/mL in [3]; 0.5 µg/mL in assay [4]; 2 µg/mL in assay [5]; 8 µg/mL in assay [6]. The MIC in [7] is 1 µg/mL; in [8], 0.5 µg/mL; in assay [9] it was above 32 µg/mL; in assay [10], 8 µg/mL; in assay [11], 0.5 µg/mL; in assay [12], above 32 µg/mL. Further, the MIC in assay [13] is 8 µg/mL; in assay [14] it was 1 µg/mL; in assay [15], 8 µg/mL.
For the molecule `NCC(=O)NCCSCc1cnccc1SC1=C(C(=O)O)N2C(=O)[C@@H](NC(=O)/C(=N\O)c3csc(N)n3)[C@H]2SC1` [Cmpd 24, (7R)-7-[(Z)-2-(aminothiazol-4-yl)-2-(hydroxyimino)acetamido]-3-[3-(glycyl)aminoethylthiomethylpyrid-4-ylthio]-3-cephem-4-carboxylate, trifluoroacetic acid salt], the MIC in [1] worked out at 8 µg/mL; in assay [2], 8 µg/mL; in [3] it was 1 µg/mL; in assay [4] it was 1 µg/mL; in [5] it was 4 µg/mL; in assay [6] it was 4 µg/mL. For the same molecule, the MIC is 0.25 µg/mL in assay [7]; 0.5 µg/mL in [8]; above 32 µg/mL in [9]; 4 µg/mL in assay [10]; 1 µg/mL in assay [11]; above 32 µg/mL in assay [12]. Further, the MIC was found to be 8 µg/mL in assay [13], 2 µg/mL in assay [14] and 8 µg/mL in [15].
On to `CN(C)C(=O)CNCCSCc1cnccc1SC1=C(C(=O)O)N2C(=O)[C@@H](NC(=O)/C(=N\O)c3nc(N)sc3Cl)[C@H]2SC1` [Cmpd 61, (7R)-7-[(Z)-2-(2-amino-5-chlorothiazol-4-yl)-2-(hydroxyimino)acetamido]-3-(3-(N,N-dimethylcarboxamidomethylaminoethylthiomethyl)pyrid-4-ylthio)-3-cephem-4-carboxylate, trifluoroacetic acid salt], for which the MIC amounted to 4 µg/mL in assay [1]; 8 µg/mL in [2]; 1 µg/mL in assay [3]; 1 µg/mL in assay [4]; 2 µg/mL in [5]; 4 µg/mL in assay [6]. In addition, the MIC in assay [7] was 0.25 µg/mL; in assay [8], 0.25 µg/mL; in assay [9] it was 16 µg/mL; in assay [10] it was 4 µg/mL; in [11], 1 µg/mL; in assay [12], above 32 µg/mL. Moreover, the MIC stood at 16 µg/mL in assay [13], 1 µg/mL in assay [14] and 4 µg/mL in assay [15].
